Measured values: patent US20120308608A1 (priority 2011, published 2012)
“Also recorded” adds a separate entry of the source.

Key:
[1] = system: Influenza A/PR/8/34 virus; assay type: cell-based
[2] = system: Influenza A/Vietnam/1203/2004 (H5N1) virus; assay type: cell-based; details: A549 cells; multiplicity of 0.01 pfu; 2 days
[3] = target: influenza virus replication machinery (PB1, PB2, PA, nucleocapsid protein of A/WSN/33) (Influenza A virus, UniProt P03427+P03430+P15659+P15682); test: Influenza virus mini-genome assay; assay type: cell-based, influenza virus strains A/WSN/33; details: A549 cells; increasing ASN2 concentrations
Influenza A/WSN/33 virus = assay type: cell-based
[4] = system: IFN production by MDCK cells; assay type: cell-based, canine
[5] = system: IFN beta promoter (MDCK-IFNb-Luc); assay type: cell-based, canine

Compound	A/PR/8/34 virus replication (HA titer) [1]	A/Vietnam/1203/2004 (H5N1) virus replication [2]	mini-genome luciferase activity [3]	A/WSN/33 virus replication (HA titer) (Influenza A/WSN/33 virus)	IFN production (IFN bioassay, VSV-GFP growth) [4]	induction of IFNb-luc reporter expression [5]
N=C(N/N=C1/C(=O)N(Cc2ccccc2)c2ccccc21)SCC(=O)Nc1ccccc1 [ASN2]	able to attenuate both A/PR/8/34 and A/WSN/33 virus replication in a dose-dependent manner; also recorded: attenuated	antiviral activity; also recorded: attenuated	decreased with increasing concentrations; also recorded: inhibited	able to attenuate both A/PR/8/34 and A/WSN/33 virus replication in a dose-dependent manner; also recorded: attenuated	able to induce biologically relevant levels of IFN once the Compound-treated cells are also infected with A/PR/8/34; also recorded: able to induce the production of IFN only if the treated cells are infected with influenza A/PR/8/34 virus	requires virus infection in order to induce IFN in the reporter assay; also recorded: depends on influenza A/PR/8/34 virus infection to induce IFN
NS(=O)(=O)c1ccc2nc3c(nc2c1)-c1cccc2cccc-3c12 [ENA51]						induces IFN independent of virus
